According to PubChem BioAssay AID192 (DTP/NCI, 2004):
Inconclusive results and toxic doses are left out. The calls were made as follows: active = survival T/C of 150% or more; inactive = T/C below 125% in these data.

System: BDF1 mice, B16 melanoma ip, median survival T/C
Test: NCI In Vivo Anticancer Drug Screen. Data for tumor model B16 Melanoma (intraperitoneal) in B6D2F1 (BDF1) mice
Details: endpoint: median survival time, higher = longer survival
Method in brief: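 Survival or tumor size is measured after treatment of tumor-bearing mice and normalised to the vehicle-treated control group.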

[1] = dose: 25.0 mg/kg/injection, schedule: Q01DX009 (ip), vehicle: saline with Tween-80
[2] = dose: 100.0 mg/kg/injection, schedule: Q01DX009 (ip), vehicle: saline with Tween-80
[3] = dose: 50.0 mg/kg/injection, schedule: Q01DX009 (ip), vehicle: saline with Tween-80
[4] = dose: 6.25 mg/kg/injection, schedule: Q01DX009 (ip), vehicle: saline
[5] = dose: 12.5 mg/kg/injection, schedule: Q01DX009 (ip), vehicle: saline
[6] = dose: 200.0 mg/kg/injection, schedule: Q01DX009 (ip), vehicle: saline with Tween-80
[7] = dose: 100.0 mg/kg/injection, schedule: Q01DX009 (ip), vehicle: Klucel (hydroxypropylcellulose) (HPC)
[8] = dose: 200.0 mg/kg/injection, schedule: Q01DX009 (ip), vehicle: Klucel (hydroxypropylcellulose) (HPC)
[9] = dose: 400.0 mg/kg/injection, schedule: Q01DX009 (ip), vehicle: Klucel (hydroxypropylcellulose) (HPC)
[10] = dose: 12.5 mg/kg/injection, schedule: Q01DX009 (ip), vehicle: Klucel (hydroxypropylcellulose) (HPC)
[11] = dose: 25.0 mg/kg/injection, schedule: Q01DX009 (ip), vehicle: Klucel (hydroxypropylcellulose) (HPC)
[12] = dose: 50.0 mg/kg/injection, schedule: Q01DX009 (ip), vehicle: Klucel (hydroxypropylcellulose) (HPC)

Measured: T/C

O=C1c2ccc(Br)cc2-c2cc(Br)ccc21
inactive: [1] 87 % of control | [2] 93 % of control

CCCCCCCCCC(=O)OCCN1CCN(CCCN2c3ccccc3Sc3ccc(C(F)(F)F)cc32)CC1
inactive: dose: 0.09 mg/kg/injection, schedule: Q01DX009 (ip), vehicle: alcohol 97 % of control | dose: 0.19 mg/kg/injection, schedule: Q01DX009 (ip), vehicle: alcohol 123 % of control | dose: 0.39 mg/kg/injection, schedule: Q01DX009 (ip), vehicle: alcohol 111 % of control

C=CCOC(=O)C1CC(C(=O)OCC=C)C(C(=O)OCC=C)C1C(=O)OCC=C (stereo unspecified)
inactive: dose: 50.0 mg/kg/injection, schedule: Q01DX009 (ip), vehicle: other 96 % of control | dose: 100.0 mg/kg/injection, schedule: Q01DX009 (ip), vehicle: other 105 % of control | dose: 200.0 mg/kg/injection, schedule: Q01DX009 (ip), vehicle: other 98 % of control

NC(Cn1cc(N(CCCl)CCCl)c(=O)[nH]c1=O)C(=O)O (stereo unspecified)
inactive: dose: 6.0 mg/kg/injection, schedule: Q01DX009 (ip), vehicle: saline 104 % of control | dose: 12.0 mg/kg/injection, schedule: Q01DX009 (ip), vehicle: saline 115 % of control

C=CCSC(C)CC (stereo unspecified)
inactive: [1] 108 % of control | [3] 119 % of control | [2] 107 % of control

Oc1c(Cl)cc(Cl)cc1/C=N/NC(=S)Nc1cc(C(F)(F)F)cc(C(F)(F)F)c1
inactive: dose: 50.0 mg/kg/injection, schedule: Q01DX009 (ip), vehicle: olive oil, sesame oil, peanut oil 92 % of control | dose: 200.0 mg/kg/injection, schedule: Q01DX009 (ip), vehicle: olive oil, sesame oil, peanut oil 96 % of control

CCN(CC)CCCN1c2ccccc2Sc2ccc(Cl)cc21
inactive: dose: 0.78 mg/kg/injection, schedule: Q01DX009 (ip), vehicle: saline 91 % of control | dose: 1.56 mg/kg/injection, schedule: Q01DX009 (ip), vehicle: saline 104 % of control | dose: 3.12 mg/kg/injection, schedule: Q01DX009 (ip), vehicle: saline 102 % of control | [4] 93 % of control | [5] 91 % of control

Oc1ccc(Nc2c3ccccc3nc3c2ccc2ccccc23)cc1CN(CCCl)CCCl
inactive: dose: 0.3 mg/kg/injection, schedule: Q01DX009 (ip), vehicle: saline 100 % of control | dose: 0.45 mg/kg/injection, schedule: Q01DX009 (ip), vehicle: saline 117 % of control | dose: 0.8 mg/kg/injection, schedule: Q01DX009 (ip), vehicle: saline 100 % of control | dose: 1.2 mg/kg/injection, schedule: Q01DX009 (ip), vehicle: saline 107 % of control

Cc1ccccc1NC(=O)Nc1ccccc1F
inactive: dose: 100.0 mg/kg/injection, schedule: Q04DX003 (ip), vehicle: Klucel (hydroxypropylcellulose) (HPC) 93 % of control | dose: 200.0 mg/kg/injection, schedule: Q04DX003 (ip), vehicle: Klucel (hydroxypropylcellulose) (HPC) 93 % of control | dose: 400.0 mg/kg/injection, schedule: Q04DX003 (ip), vehicle: Klucel (hydroxypropylcellulose) (HPC) 100 % of control

CC(O)C(O)C(O)C(/C=N\N=C(/N)[S-])=N/N=C(\N)[S-].[Pt+2] (stereo unspecified)
inactive: [2] 95 % of control | [6] 102 % of control | dose: 400.0 mg/kg/injection, schedule: Q01DX009 (ip), vehicle: saline with Tween-80 105 % of control

CN(C)CCOc1ccccn1
inactive: [2] 94 % of control | [6] 97 % of control

CCCCCCCCCCCCCCNC(=O)CCl
inactive: [7] 113 % of control | [8] 106 % of control

COc1ccc(NC(=O)COc2ccc(Cl)cc2)cc1
inactive: [7] 90 % of control | [8] 100 % of control | [9] 86 % of control

Cc1cc(=O)c2c(o1)-c1c(cc(O)c(O)c1C(=O)O)OC2
inactive: [10] 101 % of control | [11] 105 % of control | [12] 105 % of control | [7] 102 % of control | [8] 106 % of control

Nc1c(Cl)c(Cl)nc(C(=O)O)c1Cl
inactive: dose: 6.25 mg/kg/injection, schedule: Q01DX009 (ip), vehicle: Klucel (hydroxypropylcellulose) (HPC) 96 % of control | [10] 108 % of control | [11] 108 % of control | dose: 25.0 mg/kg/injection, schedule: Q02DX009 (ip), vehicle: Klucel (hydroxypropylcellulose) (HPC) 95 % of control | [12] 96 % of control | dose: 50.0 mg/kg/injection, schedule: Q02DX009 (ip), vehicle: Klucel (hydroxypropylcellulose) (HPC) 91 % of control | dose: 50.0 mg/kg/injection, schedule: Q02DX009 (ip), vehicle: other 95 % of control | [7] 102 % of control | dose: 100.0 mg/kg/injection, schedule: Q02DX009 (ip), vehicle: other 86 % of control | [8] 98 % of control

CCC1CCCCN1C(=S)N/N=C(\C)c1ccccn1 (stereo unspecified)
inactive: dose: 6.25 mg/kg/injection, schedule: Q01DX009 (ip), vehicle: saline with Tween-80 96 % of control | dose: 12.5 mg/kg/injection, schedule: Q01DX009 (ip), vehicle: saline with Tween-80 95 % of control

CC(=O)[C@@]1(O)CC[C@H]2[C@@H]3C[C@H](C)C4=CC(=O)C=C[C@]4(C)[C@@]3(F)[C@@H](O)C[C@@]21C
inactive: dose: 25.0 mg/kg/injection, schedule: Q01DX009 (sc), vehicle: steriod suspending solution 102 % of control | dose: 50.0 mg/kg/injection, schedule: Q01DX009 (sc), vehicle: steriod suspending solution 107 % of control

Cc1cc(O)c(C)c(C)c1Cl
inactive: [1] 100 % of control | [3] 97 % of control | dose: 50.0 mg/kg/injection, schedule: Q04DX003 (ip), vehicle: saline with Tween-80 92 % of control | [2] 97 % of control | dose: 100.0 mg/kg/injection, schedule: Q04DX003 (ip), vehicle: saline with Tween-80 95 % of control

CCC[P+](c1ccccc1)(c1ccccc1)c1ccccc1
inactive: dose: 2.0 mg/kg/injection, schedule: Q01DX009 (ip), vehicle: saline 96 % of control | dose: 4.0 mg/kg/injection, schedule: Q01DX009 (ip), vehicle: saline 98 % of control | dose: 8.0 mg/kg/injection, schedule: Q01DX009 (ip), vehicle: saline 115 % of control | dose: 16.0 mg/kg/injection, schedule: Q01DX009 (ip), vehicle: saline 115 % of control | dose: 32.0 mg/kg/injection, schedule: Q01DX009 (ip), vehicle: saline 108 % of control

CCCCNC(C)(C)C(SSC(c1ccc(Cl)cc1)C(C)(C)NCCCC)c1ccc(Cl)cc1 (stereo unspecified)
inactive: [4] 109 % of control | [5] 97 % of control | dose: 25.0 mg/kg/injection, schedule: Q01DX009 (ip), vehicle: saline 88 % of control

O=C1c2ccccc2C(=O)c2c1ccc(C(=O)O)c2-c1ccc2ccccc2c1
inactive: [7] 103 % of control | [8] 99 % of control | [9] 96 % of control

O=[N+]([O-])c1ccc(/C=C2/c3cc(Cl)ccc3-c3c(Cl)cc(Cl)cc32)o1
inactive: dose: 50.0 mg/kg/injection, schedule: Q01DX009 (ip), vehicle: saline 93 % of control | dose: 100.0 mg/kg/injection, schedule: Q01DX009 (ip), vehicle: saline 100 % of control | dose: 200.0 mg/kg/injection, schedule: Q01DX009 (ip), vehicle: saline 90 % of control | dose: 400.0 mg/kg/injection, schedule: Q01DX009 (ip), vehicle: saline 88 % of control
